Measured values taken from PubChem BioAssay (NCI).
“And” between values parts separate entries of the source, which are not always exact repeats. Identical values can stand only once.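 All cell lines were grown in 96-well plates and treated with compound for 48 hours. Here, GI50 denotes the concentration required for 50% inhibition of growth. TGI marks complete inhibition of growth.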

Tests used:
Test in all cases: NCI-60 cell line screen, 48 h
A498 renal = system: A498 renal
A549 NSCLC = system: A549 NSCLC
EKVX NSCLC = system: EKVX NSCLC
HCT-116 colon = system: HCT-116 colon
M14 melanoma = system: M14 melanoma
MCF7 breast = system: MCF7 breast
MOLT-4 leukemia = system: MOLT-4 leukemia
RXF 393 renal = system: RXF 393 renal
SK-MEL-28 melanoma = system: SK-MEL-28 melanoma
SN12C renal = system: SN12C renal

SMILES	GI50 (A498 renal)	TGI (A498 renal)	GI50 (A549 NSCLC)	TGI (A549 NSCLC)	GI50 (EKVX NSCLC)	TGI (EKVX NSCLC)	GI50 (HCT-116 colon)	GI50 (M14 melanoma)	TGI (M14 melanoma)	GI50 (MCF7 breast)	TGI (MCF7 breast)	GI50 (MOLT-4 leukemia)	TGI (MOLT-4 leukemia)	GI50 (RXF 393 renal)	TGI (RXF 393 renal)	GI50 (SK-MEL-28 melanoma)	TGI (SK-MEL-28 melanoma)	GI50 (SN12C renal)	TGI (SN12C renal)	TGI (HCT-116 colon)
NNc1c(C(N)=O)c2c(N)ncnc2n1C1OC(CO)C(O)C1O (stereo not drawn)	0.0445 µM and 0.161 µM	0.485 µM and 1.26 µM	0.0336 µM and 0.0924 µM	12.7 µM and 3.44 µM	0.208 µM	0.841 µM and 4.36 µM	< 0.01 µM	< 0.0127 µM and 0.0188 µM	0.0498 µM and 0.162 µM	0.0729 µM	0.179 µM and 1.29 µM	0.0232 µM and 0.0964 µM	0.103 µM and 0.495 µM	0.0254 µM and < 0.0143 µM	0.186 µM and 0.125 µM	0.138 µM and 0.0291 µM	0.759 µM and 0.192 µM	0.019 µM and 0.0443 µM	0.174 µM and 0.58 µM	–
Cc1cc(N2CCC(N3CCCC3)CC2)nc(/N=C(\N)Nc2ccc(Cl)c(Cl)c2)n1	1.94 µM	3.94 µM	1.78 µM	3.42 µM	1.71 µM	4.4 µM	1.93 µM	1.81 µM	3.67 µM	1.29 µM	2.69 µM	3.32 µM	> 100 µM	1.62 µM	3.09 µM	1.91 µM	3.41 µM	2.7 µM	10.9 µM	3.63 µM
CC[C@H](C)[C@H](NC(=O)C12C3C4C1C1C2C3C41NC)C(=O)N(C)[C@H](C[C@@H](OC(C)=O)c1nc(C(=O)N[C@@H](Cc2ccccc2)C[C@H](C)C(=O)OC)cs1)C(C)C (stereo partly drawn)	0.296 µM	4.53 µM	4.61 µM	> 14.3 µM	1.67 µM	> 14.3 µM	0.346 µM	0.42 µM	5.54 µM	0.0552 µM	> 14.3 µM	0.713 µM	> 14.3 µM	0.413 µM	> 14.3 µM	0.714 µM	> 14.3 µM	0.896 µM	> 14.3 µM	> 14.3 µM
CC(=O)ON(OCc1ccc2ccccc2c1)C(C)=O	> 100 µM	> 100 µM	> 100 µM	> 100 µM	32.3 µM	> 100 µM	> 100 µM	> 100 µM	> 100 µM	96.1 µM	> 100 µM	> 100 µM	> 100 µM	> 100 µM	> 100 µM	> 100 µM	> 100 µM	> 100 µM	> 100 µM	> 100 µM
O=[N+]([O-])c1ccccc1N=Nc1c(O)[nH]c2c(Cl)cccc12	–	> 68.8 µM	–	> 58.6 µM	–	> 61.5 µM	–	–	> 100 µM	–	> 89.6 µM	–	> 100 µM	–	98.1 µM	–	> 72.4 µM	–	> 57.7 µM	> 66.6 µM
S=c1ssnc1-c1cc2ccccc2o1	20 µM	38.8 µM	16.3 µM	32.1 µM	11.8 µM	30.8 µM	9.3 µM	16.5 µM	60.7 µM	9.55 µM	32.1 µM	3.39 µM	> 100 µM	7.78 µM	23.3 µM	15.1 µM	30 µM	13.8 µM	32.1 µM	36.8 µM
O=C1/C(=C/c2ccc(Cl)cc2)CCC1CNc1ccc(Cl)cc1 (stereo not drawn)	–	54.8 µM	–	38.1 µM	–	38.4 µM	–	–	22.8 µM	–	10.8 µM	–	27.5 µM	–	26.4 µM	–	35.9 µM	–	29.4 µM	44.6 µM
Cc1nc2c(C)ccc([N+](=O)[O-])c2c(NCCCN(C)C)c1C	–	> 49.6 µM	–	> 100 µM	–	> 100 µM	–	–	37.6 µM	–	> 100 µM	–	> 100 µM	–	> 100 µM	–	> 54.8 µM	–	> 100 µM	> 100 µM
CC1[C@@]2(CCC(C)(C)O2)O[C@@H]2C=C3C4CCC5Cc6nc7c(nc6C[C@@]5(C)C4C[C@H](O)[C@@]3(C)[C@]12O)CC1CCC2C3=C[C@H]4O[C@@]5(O[C@@](C)(CO)C[C@@H]5O)C(C)[C@@]4(O)[C@]3(C)[C@@H](O)CC2[C@]1(C)C7 (stereo partly drawn)	0.00106 µM	0.14 µM and 0.0426 µM	0.0028 µM	0.711 µM	0.00521 µM	0.875 µM and 0.462 µM	0.0273 µM	–	0.122 µM	–	0.524 µM	0.00141 µM	–	< 0.000365 µM	–	–	0.221 µM	0.421 µM	1.19 µM	0.719 µM and 0.493 µM
NC(=NCCCCCCN=C(N)/N=C(\N)Nc1ccc(Cl)cc1)/N=C(\N)Nc1ccc(Cl)cc1	1.6 µM	6.22 µM	1.05 µM	5.3 µM	1.53 µM	8.3 µM	1.74 µM	1.71 µM	6 µM	1.6 µM	5.49 µM	1.09 µM	2.84 µM	1.88 µM	8.11 µM	1.7 µM	6 µM	1.27 µM	5.77 µM	6.12 µM
CNC(=O)CCN1CCN(CC/C=C2\c3ccccc3Sc3ccc(Cl)cc32)CC1	6.89 µM	19.9 µM	10.7 µM	28.5 µM	14.5 µM	30.6 µM	5.76 µM	2.1 µM	4.4 µM	4.91 µM	18.9 µM	6.56 µM	> 34.1 µM	3.55 µM	20.4 µM	1.76 µM	3.36 µM	12.1 µM	26.6 µM	20.9 µM
[Br][Pb]([c]1ccccc1)([c]1ccccc1)[c]1ccccc1	0.177 µM	0.4 µM	0.356 µM	1.29 µM	0.183 µM	0.439 µM	0.176 µM	0.195 µM	0.409 µM	0.159 µM	0.303 µM	0.22 µM	–	0.0916 µM	0.231 µM	0.175 µM	0.342 µM	0.228 µM	0.677 µM	0.352 µM
COc1cc(N=Nc2cc(Cc3ccc(N(C)C)cc3)c(N)cc2N(C)C)c2ncccc2c1	0.809 µM	3.07 µM	0.494 µM	2.39 µM	0.332 µM	1.98 µM	0.0426 µM	0.34 µM	1.58 µM	0.21 µM	0.855 µM	0.185 µM	1.22 µM	1.08 µM	2.49 µM	0.745 µM	2.2 µM	0.649 µM	2.32 µM	1.19 µM
COC(=O)c1c(C)nc(C)c2c1C(=O)C(Br)=C(NCc1ccccc1)C2=O	4.48 µM	17.3 µM	2.56 µM	6.64 µM	2.12 µM	5.35 µM	2.5 µM	2.06 µM	4.81 µM	1.3 µM	3.29 µM	3.09 µM	10.8 µM	3.08 µM	9.69 µM	5.79 µM	17.5 µM	1.49 µM	3.45 µM	7.22 µM
